Test system: Canis familiaris
Assay: Inhibition of atrial fibrillation in iv dosed Mongrel dog vagal-atrial fibrillation model administered via infusion pump over 5 mins by electrophysiological method
Assay type: functional, Canis lupus familiaris
Conditions: not given
`O=C(NCC1CCCCN1)c1cc(OCC(F)(F)F)ccc1OCC(F)(F)F` (stereo not drawn) [FLECAINIDE] showed an ED of 1 to 10 µmol/kg.

Test system: not listed separately
Assay: Neurotoxicity in iv dosed Sprague-Dawley rat assessed as minimum infusion rate of the compound require for partial and complete convulsion
Assay type: toxicity, organism-based
Conditions: in vivo
Work on `COc1ccc(CCOC2CCCCC2N2CCCC2)cc1OC.Cl` (stereo not drawn) yielded an Activity of 8 to 21.3 µmol/kg/min.
With `COc1ccc(CCO[C@H]2CCCCC2N2CC[C@H](OCc3ccccc3)C2)cc1OC.Cl` (stereo partly drawn) the Activity was 8 µmol/kg/min.

Test system: not listed separately
Assay: Neurotoxicity in iv dosed Sprague-Dawley rat assessed as total amount of drug infused at the point that partial or complete convulsions are first observed
Assay type: toxicity, organism-based
Conditions: in vivo
With `COc1ccc(CCOC2CCCCC2N2CCCC2)cc1OC.Cl` (stereo not drawn) the Activity was 44.4 to 118 µmol/kg.

Test system: Rattus norvegicus
Assay: Antiarrhythmic activity in iv dosed Sprague-Dawley rat coronary artery occlusion model administered via infusion for 5 mins starting 15 post surgery followed by coronary artery occlusion measured for 15 mins by electrocardiogram
Assay type: functional
Conditions: not given
`COc1ccc(CCOC2CCCCC2N2CCCC2)cc1OC.Cl` (stereo not drawn) gave an ED50 of 1.33 to 2.4 µmol/kg/min.

Test system: not listed separately
Assay: Therapeutic index, ratio of neurotoxicity in iv dosed Sprague-Dawley rat assessed as total amount of drug infused at the point that partial or complete convulsions are first observed to 20 times ED50 for antiarrhythmic activity in iv dosed Sprague-Dawley rat coronary artery occlusion model
Assay type: organism-based
Conditions: Sprague-Dawley, in vivo, read-out: TI
`O[C@@H]1CCN(C2CCCC[C@@H]2OCCc2cc3ccccc3o2)C1` (stereo partly drawn) gave a selectivity ratio of 3.3.
`COc1ccc(CCCCO[C@H]2CCCCC2N2CCOCC2)cc1OC` (stereo partly drawn) gave a selectivity ratio of 2.2.
Work on `COc1ccc(CCOC2CCCC[C@H]2N2CCN(C(=O)Cc3ccc(OC)c(OC)c3)CC2)cc1OC` (stereo partly drawn) yielded a selectivity ratio of 11.1.
In the case of `COc1ccc(CCO[C@H]2CCCCC2N2CC[C@@H](OCc3ccccc3)C2)cc1OC` (stereo partly drawn), the selectivity ratio is reported as 2.6.
`COc1ccc(CCO[C@H]2CCCCC2N2CC[C@H](OC(C)=O)C2)cc1OC` (stereo partly drawn) showed a selectivity ratio of 2.
Work on `Clc1cccc(Cl)c1CCOC1CCCC[C@H]1N1CCSC1` (stereo partly drawn) yielded a selectivity ratio of 2.5.
With `c1ccc2c(CCO[C@H]3CCCCC3N3CCOCC3)cccc2c1` (stereo partly drawn) the selectivity ratio was 4.7.
With `COc1ccc(CCO[C@@H]2CCCC[C@H]2N2CC[C@@H](OC(C)=O)C2)cc1OC` the selectivity ratio was 1.8.
In the case of `O=C1CCN(C2CCCC[C@@H]2OCC(c2ccccc2)c2ccccc2)C1` (stereo partly drawn), the selectivity ratio is reported as 3.1.
For `Clc1ccc(CCO[C@H]2CCCCC2N2CCOCC2)cc1Cl` (stereo partly drawn), the selectivity ratio was 3.9.
Compound `O=C1CCN(C2CCCC[C@@H]2OCCc2c(Cl)cccc2Cl)C1` (stereo partly drawn) has a selectivity ratio of 8.6.
Work on `OC1CCN(C2CCCC[C@@H]2OCCc2ccccc2Br)C1` (stereo partly drawn) yielded a selectivity ratio of 8.4.
With `Brc1ccc(CCO[C@H]2CCCCC2N2CCOCC2)cc1` (stereo partly drawn) the selectivity ratio was 2.2.
Work on `COc1ccc(CCOC2CCCC[C@H]2N2CCC(=O)C2)cc1OC` (stereo partly drawn) yielded a selectivity ratio of 2.6.
`Clc1cccc(Cl)c1COC1CCCC[C@H]1N1CCOCC1` (stereo partly drawn) gave a selectivity ratio of 2.7.
In the case of `CC(=O)OC1CCN([C@@H]2CCCCC2OCCc2cccc3ccccc23)C1` (stereo partly drawn), the selectivity ratio is reported as 2.3.
Work on `OC1CCN(C2CCCC[C@@H]2OCCc2c(Cl)cccc2Cl)C1` (stereo partly drawn) yielded a selectivity ratio of 5.4.
With `c1ccc2c(CCO[C@H]3CCCCC3N3CCOCC3)csc2c1` (stereo partly drawn) the selectivity ratio was 3.3.
Work on `OC1CCN(C2CCCC[C@@H]2OCCn2ccc3ccccc32)C1` (stereo partly drawn) yielded a selectivity ratio of 9.4.
`Brc1ccccc1CCO[C@H]1CCCCC1N1CCOCC1` (stereo partly drawn) showed a selectivity ratio of 6.3.
`O[C@@H]1CCN(C2CCCC[C@@H]2OCCc2ccccc2C(F)(F)F)C1` (stereo partly drawn) showed a selectivity ratio of 7.3.
With `COc1ccc(CCOC2CCCC[C@H]2N2CCC(F)C2)cc1OC` (stereo partly drawn) the selectivity ratio was 2.3.
In the case of `c1ccc2cc(CCO[C@H]3CCCCC3N3CCOCC3)ccc2c1` (stereo partly drawn), the selectivity ratio is reported as 5.3.
With `c1ccc2cc(OCCO[C@H]3CCCCC3N3CCOCC3)ccc2c1` (stereo partly drawn) the selectivity ratio was 1.5.
`Brc1ccc(OCCO[C@H]2CCCCC2N2CCOCC2)cc1` (stereo partly drawn) showed a selectivity ratio of 1.4.
`COc1ccc(CCO[C@H]2CCCCC2N2CCC[C@@H]2CO)cc1OC` (stereo partly drawn) gave a selectivity ratio of 8.9.
Compound `COc1ccc(CCO[C@H]2CCCCC2N2CCC3(C2)OCCO3)cc1OC` (stereo partly drawn) has a selectivity ratio of 2.9.
In the case of `COc1cc(CCCO[C@H]2CCCCC2N2CC[C@@H](O)C2)cc(Cl)c1OC` (stereo partly drawn), the selectivity ratio is reported as 7.6.
Compound `c1cc(CCO[C@H]2CCCCC2N2CCOCC2)c2ccsc2c1` (stereo partly drawn) has a selectivity ratio of 2.7.
In the case of `COc1ccc(CCOC2CCCCC2N2CCCC2)cc1OC.Cl` (stereo not drawn), the selectivity ratio is reported as 0.9 to 4.4.
With `O=C1CCN([C@@H]2CCCCC2OCc2c(Cl)cccc2Cl)C1` (stereo partly drawn) the selectivity ratio was 5.1.
Compound `Brc1cccc(CCO[C@H]2CCCCC2N2CCOCC2)c1` (stereo partly drawn) has a selectivity ratio of 3.3.
`COc1ccc(CCO[C@H]2CCCCC2N2CC[C@H](OCc3ccccc3)C2)cc1OC.Cl` (stereo partly drawn) showed a selectivity ratio of 3.8.
`FC(F)(F)c1ccccc1CCO[C@H]1CCCC[C@H]1N1CCOCC1` (racemic) showed a selectivity ratio of 3.6.

Same assay, conditions: in vivo
Compound `Cl.OC1CCN(C2CCCC[C@@H]2OCCc2cccc3ccccc23)C1` (stereo partly drawn) has a TI of 4.3.
For `Cl.OC1CCN([C@@H]2CCCC[C@@H]2OCCc2cccc3ccccc23)C1` (stereo partly drawn), the TI was 8.8.
`COc1ccc(CCO[C@H]2CCCCC2N2CCOCC2)cc1OC` (stereo partly drawn) gave a TI of 1.4.
With `COc1ccc(CCOC2CCCC[C@H]2N2CCOCC2)cc1OC.Cl` (stereo partly drawn) the TI was 3.8.
